In patent US10239843B2 (CANCER RESEARCH TECHNOLOGY LIMITED, priority 2014, dated 2019):
Read-outs that look alike come from different tables or passages of the source.

How the values were obtained:
Human Full Length PARG = Human Full Length PARG (Homo sapiens (Human), UniProt Q86W56); assay: PARG enzyme assay (TR-FRET); format: biochemical; settings: read-out: PARG Biochem IC50
PARG in HeLa cell line = assay: PARG cell assay (PAR chain immunofluorescence after MMS); format: cell-based; settings: HeLa cells, MMS treatment, read-out: PARG Cell IC50
In short: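 HeLa cells were dosed with compound for 1 h, then given MMS at 50 μg/mL final for a further hour. Cells were methanol-fixed, permeabilised and stained overnight at 4° C with anti-PAR monoclonal antibody. Retained nuclear PAR chains, detected by indirect immunofluorescence, indicate PARG inhibition.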

Sequence of Human Full Length PARG (Q86W56 whole entry): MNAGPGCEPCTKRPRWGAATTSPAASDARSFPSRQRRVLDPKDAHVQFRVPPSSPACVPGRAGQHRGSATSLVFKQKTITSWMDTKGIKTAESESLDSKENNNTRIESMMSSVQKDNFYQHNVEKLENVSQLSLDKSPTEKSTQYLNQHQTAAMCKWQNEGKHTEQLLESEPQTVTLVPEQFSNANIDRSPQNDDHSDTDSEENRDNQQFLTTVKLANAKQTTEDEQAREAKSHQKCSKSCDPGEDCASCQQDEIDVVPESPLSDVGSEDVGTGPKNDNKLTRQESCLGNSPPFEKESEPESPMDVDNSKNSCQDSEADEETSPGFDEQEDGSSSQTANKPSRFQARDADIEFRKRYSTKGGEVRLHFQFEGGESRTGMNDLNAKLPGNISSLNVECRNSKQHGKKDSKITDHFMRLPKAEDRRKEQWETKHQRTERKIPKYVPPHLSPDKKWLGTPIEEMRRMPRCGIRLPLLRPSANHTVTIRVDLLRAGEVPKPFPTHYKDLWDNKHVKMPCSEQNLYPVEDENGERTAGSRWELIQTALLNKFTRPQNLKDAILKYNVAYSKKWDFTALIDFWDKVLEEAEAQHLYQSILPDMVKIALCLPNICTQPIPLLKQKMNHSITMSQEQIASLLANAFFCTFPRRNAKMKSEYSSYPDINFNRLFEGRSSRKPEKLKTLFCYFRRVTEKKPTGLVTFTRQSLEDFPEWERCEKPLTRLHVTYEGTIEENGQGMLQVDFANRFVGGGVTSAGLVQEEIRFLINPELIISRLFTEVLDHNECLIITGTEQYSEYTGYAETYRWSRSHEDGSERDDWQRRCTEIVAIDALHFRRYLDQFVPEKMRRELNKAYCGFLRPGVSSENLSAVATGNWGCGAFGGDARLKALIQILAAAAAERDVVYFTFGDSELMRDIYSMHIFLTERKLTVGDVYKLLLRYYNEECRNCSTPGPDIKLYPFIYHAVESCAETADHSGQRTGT

IC50 (Human Full Length PARG) [nM] | IC50 (PARG in HeLa cell line; Homo sapiens) [nM] | IC50 (PARG in HeLa cell line) [nM] | Compound
604 | 350 | – | Cc1cc(Cn2c(=O)c3cc(S(=O)(=O)NC4(C)CC4)ccc3n(CC#N)c2=O)on1 [Example 503, 1-(Cyanomethyl)-N-(1-methylcyclopropyl)-3-[(3-methylisoxazol-5-yl)methyl]-2,4-dioxo-quinazoline-6-sulfonamide]
770 | 539 | – | Cc1oncc1Cn1c(=O)c2cc(S(=O)(=O)NC3(C)CC3)ccc2n(C)c1=O [Example 506, 1-Methyl-N-(1-methylcyclopropyl)-3-[(5-methylisoxazol-4-yl)methyl]-2,4-dioxo-quinazoline-6-sulfonamide]
384 | 178 | – | Cc1cc(Cn2c(=O)c3cc(S(=O)(=O)NC4(CF)CC4)ccc3n(C)c2=O)on1 [Example 514, N-[1-(Fluoromethyl)cyclopropyl]-1-methyl-3-[(3-methylisoxazol-5-yl)methyl]-2,4-dioxo-quinazoline-6-sulfonamide]
579 | 698 | – | Cc1nnc(Cn2c(=O)c3cc(S(=O)(=O)NC4(CF)CC4)ccc3n(C)c2=O)s1 [Example 515, N-[1-(Fluoromethyl)cyclopropyl]-1-methyl-3-[(5-methyl-1,3,4-thiadiazol-2-yl)methyl]-2,4-dioxo-quinazoline-6-sulfonamide]
443 | 807 | – | Cc1cc(Cn2c(=O)[nH]c3ccc(S(=O)(=O)NC4(CF)CC4)cc3c2=O)on1 [Example 516, N-[1-(Fluoromethyl)cyclopropyl]-3-[(3-methylisoxazol-5-yl)methyl]-2,4-dioxo-1H-quinazoline-6-sulfonamide]
56 | 41 | – | Cc1cc(Cn2c(=O)c3cc(S(=O)(=O)NC4(CF)CC4)ccc3n(CC3CC3)c2=O)on1 [Example 517, 1-(Cyclopropylmethyl)-N-[1-(fluoromethyl)cyclopropyl]-3-[(3-methylisoxazol-5-yl)methyl]-2,4-dioxo-quinazoline-6-sulfonamide]
117 | 95 | – | Cc1cc(Cn2c(=O)c3cc(S(=O)(=O)NC4(CF)CC4)ccc3n(Cc3ccc(F)cc3)c2=O)on1 [Example 518, N-[1-(Fluoromethyl)cyclopropyl]-1-[(4-fluorophenyl)methyl]-3-[(3-methylisoxazol-5-yl)methyl]-2,4-dioxo-quinazoline-6-sulfonamide]
50 | 312 | – | Cc1cc(Cn2c(=O)c3cc(S(=O)(=O)NC4(CF)CC4)ccc3n(Cc3cc(C)nn3C)c2=O)on1 [Example 519, 1-[(2,5-Dimethylpyrazol-3-yl)methyl]-N-[1-(fluoromethyl)cyclopropyl]-3-[(3-methylisoxazol-5-yl)methyl]-2,4-dioxo-quinazoline-6-sulfonamide]
162 | – | 92 | CCn1c(=O)n(Cc2cc(C)no2)c(=O)c2cc(S(=O)(=O)NC3(CF)CC3)ccc21 [Example 520, 1-Ethyl-N-[1-(fluoromethyl)cyclopropyl]-3-[(3-methylisoxazol-5-yl)methyl]-2,4-dioxo-quinazoline-6-sulfonamide]
54 | 92 | – | Cc1cc(Cn2c(=O)c3cc(S(=O)(=O)NC4(CF)CC4)ccc3n(Cc3cc(C)no3)c2=O)on1 [Example 521, N-[1-(Fluoromethyl)cyclopropyl]-1,3-bis[(3-methylisoxazol-5-yl)methyl]-2,4-dioxo-quinazoline-6-sulfonamide]
112 | 923 | – | Cc1cc(Cn2c(=O)c3cc(S(=O)(=O)NC4(CF)CC4)ccc3n(CC3COC3)c2=O)on1 [Example 522, N-[1-(Fluoromethyl)cyclopropyl]-3-[(3-methylisoxazol-5-yl)methyl]-1-(oxetan-3-ylmethyl)-2,4-dioxo-quinazoline-6-sulfonamide]
411 | 571 | – | Cc1cc(Cn2c(=O)c3cc(S(=O)(=O)NC4(CF)CC4)ccc3n(CC#N)c2=O)on1 [Example 523, 1-(Cyanomethyl)-N-[1-(fluoromethyl)cyclopropyl]-3-[(3-methylisoxazol-5-yl)methyl]-2,4-dioxo-quinazoline-6-sulfonamide]
125 | 310 | – | Cc1cc(Cn2c(=O)c3cc(S(=O)(=O)NC4(CF)CC4)ccc3n(CC3CCOC3)c2=O)on1 (centres unmarked) [Example 524, N-[1-(Fluoromethyl)cyclopropyl]-3-[(3-methylisoxazol-5-yl)methyl]-2,4-dioxo-1-(tetrahydrofuran-3-ylmethyl)quinazoline-6-sulfonamide]
169 | – | 315 | COCCCn1c(=O)n(Cc2cc(C)no2)c(=O)c2cc(S(=O)(=O)NC3(CF)CC3)ccc21 [Example 525, N-[1-(Fluoromethyl)cyclopropyl]-1-(3-methoxypropyl)-3-[(3-methylisoxazol-5-yl)methyl]-2,4-dioxo-quinazoline-6-sulfonamide]
120 | – | 87 | C#CCn1c(=O)n(Cc2cc(C)no2)c(=O)c2cc(S(=O)(=O)NC3(CF)CC3)ccc21 [Example 532, N-[1-(Fluoromethyl)cyclopropyl]-3-[(3-methylisoxazol-5-yl)methyl]-2,4-dioxo-1-prop-2-ynyl-quinazoline-6-sulfonamide]
287 | 282 | – | Cc1ncc(Cn2c(=O)c3cc(S(=O)(=O)NC4(CF)CC4)ccc3n(C)c2=O)s1 [Example 533, N-[1-(Fluoromethyl)cyclopropyl]-1-methyl-3-[(2-methylthiazol-5-yl)methyl]-2,4-dioxo-quinazoline-6-sulfonamide]
191 | 147 | – | CCCn1c(=O)n(Cc2cc(C)no2)c(=O)c2cc(S(=O)(=O)NC3(CF)CC3)ccc21 [Example 535, N-[1-(Fluoromethyl)cyclopropyl]-3-[(3-methylisoxazol-5-yl)methyl]-2,4-dioxo-1-propyl-quinazoline-6-sulfonamide]
261 | – | 376 | CCCCn1c(=O)n(Cc2cc(C)no2)c(=O)c2cc(S(=O)(=O)NC3(CF)CC3)ccc21 [Example 536, 1-Butyl-N-[1-(fluoromethyl)cyclopropyl]-3-[(3-methylisoxazol-5-yl)methyl]-2,4-dioxo-quinazoline-6-sulfonamide]
189 | 181 | – | Cc1ccc(Cn2c(=O)n(Cc3cnn(C)c3)c(=O)c3cc(S(=O)(=O)NC4(CF)CC4)ccc32)nc1 [Example 537, N-[1-(Fluoromethyl)cyclopropyl]-3-[(1-methylpyrazol-4-yl)methyl]-1-[(5-methyl-2-pyridyl)methyl]-2,4-dioxo-quinazoline-6-sulfonamide]
162 | – | 393 | Cn1cc(Cn2c(=O)c3cc(S(=O)(=O)NC4(CF)CC4)ccc3n(Cc3cccc(C#N)n3)c2=O)cn1 [Example 538, 1-[(6-Cyano-2-pyridyl)methyl]-N-[1-(fluoromethyl)cyclopropyl]-3-[(1-methylpyrazol-4-yl)methyl]-2,4-dioxo-quinazoline-6-sulfonamide]
73 | 187 | – | Cc1cncc(Cn2c(=O)n(Cc3cnn(C)c3)c(=O)c3cc(S(=O)(=O)NC4(CF)CC4)ccc32)c1 [Example 539, N-[1-(Fluoromethyl)cyclopropyl]-3-[(1-methylpyrazol-4-yl)methyl]-1-[(5-methyl-3-pyridyl)methyl]-2,4-dioxo-quinazoline-6-sulfonamide]
160 | 96 | – | Cn1cc(Cn2c(=O)c3cc(S(=O)(=O)NC4(CF)CC4)ccc3n(Cc3cccc(F)n3)c2=O)cn1 [Example 540, N-[1-(Fluoromethyl)cyclopropyl]-1-[(6-fluoro-2-pyridyl)methyl]-3-[(1-methylpyrazol-4-yl)methyl]-2,4-dioxo-quinazoline-6-sulfonamide]
113 | 227 | – | Cc1cc(Cn2c(=O)n(Cc3cnn(C)c3)c(=O)c3cc(S(=O)(=O)NC4(CF)CC4)ccc32)ccn1 [Example 541, N-[1-(Fluoromethyl)cyclopropyl]-3-[(1-methylpyrazol-4-yl)methyl]-1-[(2-methyl-4-pyridyl)methyl]-2,4-dioxo-quinazoline-6-sulfonamide]
349 | 330 | – | Cn1cc(Cn2c(=O)c3cc(S(=O)(=O)NC4(CF)CC4)ccc3n(Cc3ncccc3F)c2=O)cn1 [Example 542, N-[1-(Fluoromethyl)cyclopropyl]-1-[(3-fluoro-2-pyridyl)methyl]-3-[(1-methylpyrazol-4-yl)methyl]-2,4-dioxo-quinazoline-6-sulfonamide]
58 | 70 | – | Cn1cc(Cn2c(=O)c3cc(S(=O)(=O)NC4(CF)CC4)ccc3n(Cc3ccc(C#N)cc3)c2=O)cn1 [Example 543, 1-[(4-Cyanophenyl)methyl]-N-[1-(fluoromethyl)cyclopropyl]-3-[(1-methylpyrazol-4-yl)methyl]-2,4-dioxo-quinazoline-6-sulfonamide]
151 | 86 | – | Cn1cc(Cn2c(=O)c3cc(S(=O)(=O)NC4(CF)CC4)ccc3n(CCF)c2=O)cn1 [Example 544, 1-(2-Fluoroethyl)-N-[1-(fluoromethyl)cyclopropyl]-3-[(1-methylpyrazol-4-yl)methyl]-2,4-dioxo-quinazoline-6-sulfonamide]
145 | 168 | – | Cc1noc(C)c1Cn1c(=O)n(Cc2cnn(C)c2)c(=O)c2cc(S(=O)(=O)NC3(CF)CC3)ccc21 [Example 545, 1-[(3,5-Dimethylisoxazol-4-yl)methyl]-N-[1-(fluoromethyl)cyclopropyl]-3-[(1-methylpyrazol-4-yl)methyl]-2,4-dioxo-quinazoline-6-sulfonamide]
152 | 182 | – | Cc1nc(Cn2c(=O)n(Cc3cnn(C)c3)c(=O)c3cc(S(=O)(=O)NC4(CF)CC4)ccc32)no1 [Example 546, N-[1-(Fluoromethyl)cyclopropyl]-1-[(5-methyl-1,2,4-oxadiazol-3-yl)methyl]-3-[(1-methylpyrazol-4-yl)methyl]-2,4-dioxo-quinazoline-6-sulfonamide]
